“Also recorded” adds a separate entry of the source.
Key:
[1] = Photostability under continuous excitation for 3 hours; type: physicochemical; conditions: for photobleaching relative to Fluorescein and Rhodamine B: 3 hours continuous excitation
Procedure: Fluorescence spectra were recorded by a Horiba FluoroMax-4 spectrofluorometer. All samples were measured at a concentration corresponding to an optical density of 0.1 in water and a slit size of 1 nm by 1 nm unless specified. Quantum yields were also determined on same spectrofluorometer by using a Quantum-φ integration sphere at samples' maximum excitation wavelength and at an increment of 0.3 nm. Photostability studies were done by continuously exciting samples at their maximum excitation wavelength and monitoring at the maximum emission wavelength.
Fluorescence spectra were recorded on a Horiba FluoroMax-4 spectrofluorometer (Horiba Scientific, Edison N.J.). All polymer and samples were characterized at a concentration of 2 wt % in 1,4-dioxane and a slit size of 1 nm by 1 nm unless otherwise specified. The fluorescence properties of small molecule dyes were also measure in 2 wt % DI water solutions at same conditions as polymer solutions. BPLPs were also degraded in 1M K2CO3 solution at 37° C. for 24 hours and then neutralized with 1N HCl solution to pH7. The resulting degradation solutions were subject to further PL characterizations. Quantum yields were also determined on the same spectrofluorometer by using a Quantum-φ integration sphere (Horiba Scientific, Edison N.J.) at the same concentration and slit size with the blank solvent as the reference. Photostability of small molecules and polymers were determined by monitoring the emission intensity decay at their max. Excitation and emission wavelengths over 3 hours of continuous lumination in the spectrofluorometer.
Photostability of CFDs was characterized thereafter, since traditional organic dyes suffer from photobleaching. Various CFDs were tested under their maximum excitation and emission wavelengths for 3 hours, and the photoluminescence was normalized to the initial intensity.

[2] = test system: 3T3 cells; experiment: Fluorescence cell labelling, confocal microscopy; type: cell-based, mouse; conditions: 500 μg/ml for 24 hours; DAPI, FITC, Cy3 channels
[3] = Chlorine sensing by fluorescence titration; type: physicochemical
From the text: This chlorine detection method seems to be much more sensitive than for halide detection, as chlorine in tap water diluted 1:2 can be measured. Furthermore, because measurement is based on the titration point, the presence of halides in solution would only lower the slope of the fluorescence plots without affecting the titration point. In reverse order of what observed results for halide quenching, sensing of bromine is much less sensitive than chlorine. Visual confirmation of the titration point is possible with a UV lamp, allowing for a low-cost and low-tech method of chlorine determination. It should also be noted that by varying the use of amine-containing molecules used in the syntheses of fluorophores described herein, it was possible to tune the chloride sensing at neutral pH.

[4] = Acid-base titration with NaOH (pKa, protolytic states); type: physicochemical
Procedure: The pKa values of CA-Cys were determined through acid-base titration with NaOH. Titration curves support the presence of two carboxyl groups with close pKa values for two reasons. The molar mass of CA-Cys, 241 g/mol as determined by LC-ESI-MS, matches the molar mass value of 245.6 g/mol determined by titration only when assuming a diprotic acid. Moreover, the long buffered region of the titration curve supports the presence of two carboxyl groups with close pKas that are overlapping the first inflection point, estimated to be at ½ NaOH volume of the end point.
Based on the pKa values determined from 2.4, a theoretical protolytic equilibria was established based on equations 1-3 below: […]

[5] = Halide fluorescence quenching (Stern-Volmer); type: physicochemical
Procedure: Absorbance Spectra were recorded on Tecan Infinite M200 Pro UV-vis spectroscopy, and fluorescence spectra were recorded on Horiba FluoroMax-4 fluorospectroscopy at concentrations below 0.1 O.D. unless otherwise indicated. Quantum Yields were measured on the Quantum φ Integrating Sphere accessory to the FluoroMax-4, while lifetime measurements were determined through the Time-Correlation Single Photon Counting (TCSPC) accessory to the FluroMax-4. TCSPC was utilized in conjunction with NanoLED pulsed diode light source with peak excitation wavelength at 352 nm and at 10,000 counts peak preset. Emission was collected at the fluorescence λmax, unless otherwise indicated. For all pH-dependence experiments, sample pH was adjusted with sulfuric acid or sodium hydroxide. For all chloride-dependent quenching experiments, magnesium chloride hexahydrate (Sigma Aldrich) was used.
When a fluorophore of [F] absorbs light energy, excitation raises a sub-population of [F] to the excited state, [F*], which then rapidly lose energy along radiative relaxation (kr) or non-radiative relaxation (knr) according to equation 7. If a quencher forms a complex with the excited fluorophore, an extra non-radiative component, kq, is added to equation 7 to account for the additional relaxation pathway that is a function of quencher concentration and its association constant.
[formula] Thus the quenching of fluorescence can be quantitatively analyzed by comparing the affected lifetimes. The Stern-Volmer (SV) relationship is used to determine kq, the bimolecular quenching rate constant for the diffusion coefficients of the fluorophore and quencher, by deriving a plot of τ0/τ versus [Q]:
[formula] Thus the linear slope of the SV plot, KSV, measures the efficiency of the quencher. Since sulfuric acid was used to study proton-induced quenching, the pH value was a better indicator of [H^+] due to incomplete dissociation of sulfuric acid at high concentrations. In the case of multiple quenchers, as will be discussed in this paper, equation 7 must include additional kq terms that result in modified form of equation 12 below:
[formula] If the two quenchers are act independently, the quencher of known quenching rate and concentration can be combined into the Y-intercept term in order to determine the quenching rate of the second, unknown quencher. […]
To translate halide quenching into quantitative sensing applications, a modified Stern-Volmer equation (Equation 14) was used to linearize the effects of two quenchers, protons and the halide being studied, on the fluorescence of CA-Cysteine. […]
Since the measured sample fluorescence is quenched by both protons and halides, the unquenched fluorescence, Io, was defined as the fluorescence of the neutral state CA-Cysteine in the absence of additional proton or halide quenchers. As mentioned above, the effects of protolytic equilibria stabilize around pH 2.2, where CA-Cysteine undergoes 99% conversion from the dianion state and is marked by constant fluorescence intensities (FIG. 13). […] Thus we chose the fluorescence intensity at pH 2.2 (in the absence of halides) as the unquenched reference signal, Io. IH,Cl in equation 23 is the sample fluorescence at the pH and halide concentration indicated. […]

Row | sensitivity to chlorine [3] | pKa1 (3-carboxyl group) [4] | pKa2 (7-carboxyl group) [4] | Exists at pH ([4]; Anion protolytic state) | Exists at pH ([4]; Dianion protolytic state) | Exists at pH ([4]; Neutral protolytic state) | fluorescence quenching by magnesium chloride ([5]; pH 8.2) | fluorescence quenching by magnesium chloride ([5]; strongly acidic conditions (pH 2.4)) | photostability ([1]; FIG. 19) | luminescence lost ([1]; after 3 hours continuous excitation) | fluorescence remaining ([1]; after continuous UV excitation for 3 hours) | SMILES | photobleaching relative to Fluorescein and Rhodamine B [1] | fluorescence from cells after uptake [2] | fluorescence quenching by magnesium sulfate and sodium sulfate [5] | fluorescence quenching by bromide and iodide ([5]; compared with chloride)
1 | – | – | – | – | – | – | – | – | – | – | – | CC(C(=O)O)N1C(=O)C=C(C(=O)O)CC1=O (stereo not shown) [CA-Ala] | photobleaching on par with Fluorescein but more resistant than Rhodamine B | – | – | –
2 | sensitive to chlorine | 2.345 | 3.41 | 2.35~3.41 | >3.41 | <2.35 | no significant quenching | quenched | strong photostability | less than 3% | 95% | O=C(O)c1cc2n(c(=O)c1)C(C(=O)O)CS2 (stereo not shown) [CA-Cys] | less stable | Strong fluorescence was observed; also recorded: strong DAPI-channel fluorescence | did not quench fluorescence under any conditions | quenched by bromide and iodide at even greater affinities

From patent US10648917B2, “Luminescent compositions and applications thereof” (THE PENN STATE RESEARCH FOUNDATION, priority 2015, dated 2020)
